Measurements as given in publication PMC5104425, “A Novel Selective Inhibitor of Delta-5 Desaturase Lowers Insulin Resistance and Reduces Body Weight in Diet-Induced Obese C57BL/6J Mice” (PLoS ONE, 2016).

What was measured:
DIO mice [1] = assay: Anti-obesity effects in DIO mice, 6-week treatment (HFD D12492): BW, calorie intake, observations; assay type: in vivo, C57BL/6J mice
Method: (§1) In this report, we performed 3 independent studies in DIO mice to characterize anti-obesity effects of our D5D specific inhibitor. Male C57BL/6J mice were obtained from Charles River Laboratories (Yokohama, Japan) or CLEA Japan (Osaka, Japan). The mice were fed a laboratory chow and water ad libitum and housed in a 12-h light/dark cycle. Compound or vehicle was administered once daily between 15: 00–19:00 by oral gavage. Body weight (BW) and food intake were monitored throughout the experiment.
Mice were fed a high-fat diet (HFD) that has 60% kcal from fat and contains 0.09% (w/w) AA (D12492; Research diets, Inc., see S1 Table for fatty acid profile) from 5 weeks of age, and they were divided into 5 groups (7 animals per group) at 11 weeks of age based on BW and daily food intake. In this experiment, 30 mg/kg sibutramine, a […], was used as a positive control for anti-obesity effects. Mice were orally administered compound-326 at doses of 0.1, 1, and 10 mg/kg, sibutramine at a dose of 30 mg/kg, or vehicle for 6 weeks. After 6 weeks, blood concentrations of DGLA and AA under non-fasting condition were evaluated as pharmacodynamics (PD) markers, and oral glucose tolerance test (OGTT) was performed.

[2] = test system: epididymal fat of DIO mice; assay: Satellite DIO mice, day 32: epididymal fat gene expression and BW; assay type: in vivo, C57BL/6J mice; conditions: 10 mg/kg, 32 days
From the text: Total RNA was extracted and purified using RNeasy Mini Kit (QIAGEN, USA). First-strand cDNA was synthesized using High Capacity cDNA Reverse Transcription Kits (Thermo Fisher, USA). The mRNA levels were quantified by an ABI Prism 7900 TaqMan PCR system (Thermo Fisher, USA) according to the manufacturer’s instruction using TaqMan® Universal PCR Mastermix with the primer-probe sets of TaqMan Gene Expression Assays (Thermo Fisher, USA) for the following genes: Ccl2 (chemokine (C-C motif) ligand 2; Mm99999056_m1), Cd68 (CD68 antigen; Mm03047343_m1), Adgre1 (adhesion G protein-coupled receptor E1; Mm00802529_m1), Tnf (tumor necrosis factor; Mm00443258_m1), Il6 (interleukin 6; Mm99999064), Lep (leptin; Mm00434759_m1), Adipoq (adiponectin; Mm00456425_m1), Fads2 ([…]; Mm00517221_m1), Fads1 ([…]; Mm00507605_m1), Ucp1 (uncoupling protein 1; Mm00494069_m1), Elovl3 (elongation of very long chain fatty acids 3; Mm00468164_m1), Cidea (cell death-inducing DNA fragmentation factor, alpha subunit-like effector A; Mm00432554_m1), Otop1 (otopetrin 1; Mm00554705_m1), and Rplp0 (ribosomal protein, large, P0; forward; 5'-[…]-3', reverse; 5'-[…]-3', probe (VIC-5'→3'-TAMRA); 5'-[…]-3'). The Rplp0 mRNA level was used as a reference and relative transcript levels were calculated with the comparative Ct method (2^-ΔΔCT) (Applied Bio-systems).
In 6 weeks administration study of compound-326 (10 mg/kg), satellite animals were prepared to evaluate the gene expression levels in epididymal fat at the intermediate point (day 32). Mice fed a HFD (D12079B; Research diets, Inc.) from 5 weeks of age were divided into 2 groups at the age of 8 weeks (11 animals per group), and were administered 10 mg/kg compound-326 or vehicle for 32 days. After the treatment period, mice were sacrificed and epididymal fat were harvested for mRNA analysis. […] (B) RT-qPCR was performed in epididymal fat tissue after 32 days treatment. Data are expressed as mean ± SE (n=11). *p≤ 0.05 vs. DIO vehicle by Aspin-Welch test. ¶¶p≤ 0.01 vs. DIO vehicle by Student's t-test.

human D6D = biological target: T1, human D6D (Homo sapiens, UniProt O95864); assay: In vitro cell-based assay for desaturase activity (HepG2), D6D
T1 construct: endogenous in cells; host or cells: HepG2
T1 sequence (O95864 1-444): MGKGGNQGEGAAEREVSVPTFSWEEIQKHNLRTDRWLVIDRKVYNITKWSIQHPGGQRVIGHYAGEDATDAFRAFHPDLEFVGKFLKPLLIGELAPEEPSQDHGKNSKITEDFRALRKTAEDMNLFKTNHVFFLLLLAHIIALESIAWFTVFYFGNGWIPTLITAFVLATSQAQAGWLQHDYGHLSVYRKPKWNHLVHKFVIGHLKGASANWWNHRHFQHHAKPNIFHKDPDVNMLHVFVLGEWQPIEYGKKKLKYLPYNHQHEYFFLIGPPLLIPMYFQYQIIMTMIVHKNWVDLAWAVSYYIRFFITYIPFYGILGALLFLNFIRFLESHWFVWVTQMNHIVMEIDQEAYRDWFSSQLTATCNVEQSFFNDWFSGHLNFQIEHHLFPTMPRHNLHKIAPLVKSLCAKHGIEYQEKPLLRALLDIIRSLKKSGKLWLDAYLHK
Method: HepG2 cells were seeded in 96-well cell culture plates at 100 000 cells/well and incubated overnight in DMEM supplemented with 10% fetal bovine serum, 100 U/mL penicillin, and 100 μg/mL streptomycin in 5% CO2 at 37°C. The cells were washed twice with 200 μL of PBS and incubated with the test compounds in DMEM with 0.1% fatty acid free BSA for 30 min. Then, 0.1 μCi/well of [^14C]-labeled DGLA, linoleic acid, and stearic acid (ARC, St. Louis, MO) were added for each desaturase assay. After incubation for 3 h at 37°C, the cells were washed 3 times with 200 μL of PBS to remove [^14C]-labeled substrates in the medium and 0.63 N of NaOH was added to saponify fatty acids. Radioactive substrates and products were extracted, separated, and analyzed using the method as described above.

DIO mice [3] = assay: Established DIO mice (HFD D12079B for 50 weeks), 11-week treatment: BW, calorie intake, fat mass; assay type: in vivo, C57BL/6J mice
Method: as §1
To evaluate the effect on daily EE, DIO mice fed a HFD that has 41% kcal from fat and contains no AA (D12079B; Research diets, Inc., see S1 Table for fatty acids composition) for 50 weeks were used. At 55 weeks of age, DIO mice were divided into two weight-matched groups (7 animals per group) and treated with vehicle or 10 mg/kg compound-326 for 11 weeks. […] Indirect calorimetry test was performed on day1, 8, 15, 21, and 56 during the study. Daily EE was analyzed using ANCOVA with body mass as covariate. After the treatment period, mice were sacrificed and fat tissues were harvested to evaluate the weights.

## O=C1Cc2c(nc(OCC(F)(F)C(F)(F)F)n(-c3ccc(OCC(F)(F)F)cc3)c2=O)N1 [Compound-326, 2-(2,2,3,3,3-Pentafluoropropoxy)-3-[4-(2,2,2-trifluoroethoxy)phenyl]-5,7-dihydro-3H-pyrrolo[2,3-d]pyrimidine-4,6-dione]
DIO mice [1]; compound-326 10 mg/kg p.o. once daily, 6 weeks
  BW: gradual decrease in BW
DIO mice [1]; compound-326 0.1-10 mg/kg p.o., 6 weeks
  abnormal findings such as behavioral changes, diarrhea, or steatorrhea: No abnormal findings
DIO mice [1]; compound-326 at all doses (0.1, 1, 10 mg/kg), slight decrease at 10 mg/kg
  daily calorie intake: not altered significantly
DIO mice [1]; compound-326 lower doses (0.1 and 1 mg/kg) p.o., 6 weeks
  BW: not effective
[2]
  Adgre1 gene expression level in epididymal fat: significantly decreased
  BW: no significant BW loss
  Ccl2 gene expression level in epididymal fat: significantly decreased
  Cd68 gene expression level in epididymal fat: significantly decreased
  Il6 gene expression level in epididymal fat: significantly decreased
Human D6D
  inhibition of D6D activity: almost no inhibition
Human D6D; Cell-based (HepG2)
  IC50: > 10 µM
DIO mice [3]; 10 mg/kg p.o., 11 weeks
  daily calorie intake: slightly decreased until day 21, followed by a trend toward increase
DIO mice [3]; 10 mg/kg p.o., 11 weeks (data not shown)
  cumulative calorie intake: no appreciable change
DIO mice [3]; 10 mg/kg p.o., 11 weeks, from day 21 until day 77
  BW: sustained and significant BW reduction
DIO mice [3]; 10 mg/kg, 11 weeks, mesenteric fat p≤0.05, subcutaneous and epididymal fat p≤0.01 vs vehicle
  white adipose tissue (WAT) depot mass: marked decrease
